Laboratory results taken from article PMC4595979 (Horticulture Research, 2015).

Columns and labels:
LOX2:Md:2b (MdLOX2b) = biological target: T1, LOX2:Md:2b (MdLOX2b) (Malus domestica, UniProt S4ULD7); assay: HPLC product analysis; format: biochemical; settings: 50 mM sodium phosphate pH 7.5, 25 °C, 0.3 mM substrate
T1 sequence (S4ULD7 1-905): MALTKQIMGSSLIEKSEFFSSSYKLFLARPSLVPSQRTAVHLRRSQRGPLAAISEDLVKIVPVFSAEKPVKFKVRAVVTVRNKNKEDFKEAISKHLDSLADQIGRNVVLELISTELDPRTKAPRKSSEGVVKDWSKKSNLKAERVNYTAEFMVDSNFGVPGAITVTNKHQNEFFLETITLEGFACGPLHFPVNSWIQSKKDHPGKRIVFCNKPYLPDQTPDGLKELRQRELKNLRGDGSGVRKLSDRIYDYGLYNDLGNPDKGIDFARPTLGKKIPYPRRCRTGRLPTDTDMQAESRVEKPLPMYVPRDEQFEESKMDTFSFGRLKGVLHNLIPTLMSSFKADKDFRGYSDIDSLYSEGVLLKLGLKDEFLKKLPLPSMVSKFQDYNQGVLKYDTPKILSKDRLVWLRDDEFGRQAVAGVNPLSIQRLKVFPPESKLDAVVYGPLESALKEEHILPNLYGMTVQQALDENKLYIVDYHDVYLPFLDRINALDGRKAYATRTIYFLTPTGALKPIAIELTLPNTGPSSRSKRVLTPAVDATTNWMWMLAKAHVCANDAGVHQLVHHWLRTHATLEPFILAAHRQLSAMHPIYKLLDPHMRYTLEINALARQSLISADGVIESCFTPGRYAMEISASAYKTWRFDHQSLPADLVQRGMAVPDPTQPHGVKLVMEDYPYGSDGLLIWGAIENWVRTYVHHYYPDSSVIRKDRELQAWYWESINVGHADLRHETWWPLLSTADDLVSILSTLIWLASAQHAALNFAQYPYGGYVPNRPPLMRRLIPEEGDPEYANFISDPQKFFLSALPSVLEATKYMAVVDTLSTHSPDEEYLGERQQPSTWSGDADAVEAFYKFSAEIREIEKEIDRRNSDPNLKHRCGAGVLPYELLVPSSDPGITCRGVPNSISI

LOX2:Md:2a (MdLOX2a) = biological target: T2, LOX2:Md:2a (MdLOX2a) (Malus domestica, UniProt S4U6N9); assay: HPLC product analysis; format: biochemical; settings: 50 mM sodium phosphate pH 7.5, 25 °C, 0.3 mM substrate
T2 sequence (S4U6N9 1-906): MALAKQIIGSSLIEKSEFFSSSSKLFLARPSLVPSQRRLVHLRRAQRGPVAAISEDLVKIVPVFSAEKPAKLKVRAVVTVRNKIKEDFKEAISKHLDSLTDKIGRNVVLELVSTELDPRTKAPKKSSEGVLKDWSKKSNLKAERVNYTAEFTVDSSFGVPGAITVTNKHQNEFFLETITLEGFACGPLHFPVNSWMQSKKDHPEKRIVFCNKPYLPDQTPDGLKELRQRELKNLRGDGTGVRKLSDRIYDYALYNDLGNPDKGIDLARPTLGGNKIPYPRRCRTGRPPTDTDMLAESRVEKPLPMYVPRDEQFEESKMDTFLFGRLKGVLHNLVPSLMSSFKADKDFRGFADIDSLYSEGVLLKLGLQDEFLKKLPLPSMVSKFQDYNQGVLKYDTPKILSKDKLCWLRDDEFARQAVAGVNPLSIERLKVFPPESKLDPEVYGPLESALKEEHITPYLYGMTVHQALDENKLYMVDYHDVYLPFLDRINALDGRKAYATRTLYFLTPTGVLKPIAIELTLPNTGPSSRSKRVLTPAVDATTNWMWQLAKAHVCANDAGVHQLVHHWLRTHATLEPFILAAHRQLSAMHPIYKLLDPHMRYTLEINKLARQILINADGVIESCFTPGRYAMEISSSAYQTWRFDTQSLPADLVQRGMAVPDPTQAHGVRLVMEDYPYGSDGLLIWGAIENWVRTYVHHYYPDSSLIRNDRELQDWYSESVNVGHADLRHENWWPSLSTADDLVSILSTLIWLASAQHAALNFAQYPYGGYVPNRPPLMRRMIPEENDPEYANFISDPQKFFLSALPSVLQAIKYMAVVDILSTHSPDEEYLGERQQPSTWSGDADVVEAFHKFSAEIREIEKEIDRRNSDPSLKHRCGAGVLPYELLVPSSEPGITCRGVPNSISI

Structure (SMILES)	HPLC product analysis (SP-HPLC, CP-HPLC) (LOX2:Md:2b (MdLOX2b))	HPLC product analysis (SP-HPLC, CP-HPLC) (LOX2:Md:2a (MdLOX2a))
CCCCC/C=C\C/C=C\CCCCCCCC(=O)O [linoleic acid]	LOX2:Md:2a and LOX2:Md:2b converted LA and LnA predominantly to 13-hydroperoxides	LOX2:Md:2a and LOX2:Md:2b converted LA and LnA predominantly to 13-hydroperoxides
CC/C=C\C/C=C\C/C=C\CCCCCCCC(=O)O [α-linolenic acid]	LOX2:Md:2a and LOX2:Md:2b converted LA and LnA predominantly to 13-hydroperoxides	LOX2:Md:2a and LOX2:Md:2b converted LA and LnA predominantly to 13-hydroperoxides
